System: P12-Ichikawa
Assay: cell viability relative to DMSO control; higher = less cytotoxic
Settings: 48 h
In short: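 In 1536-well plates, 5 μl of leukemia cells were seeded per well: 500 cells/well for NOMO1 or SEM and 1000 cells/well for P12-Ichikawa. Each line had first been adapted for at least four passages in each medium. Library compounds in DMSO were pin-dosed at 11 threefold concentrations between 47 μM and 0.79 nM, and CellTiter-Glo One luminescence was read after 48 h at 37°C. Viability is a per-plate percentage relative to DMSO wells, with cell-free wells as background.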

[1] = HPLM + 10% dialyzed FBS, 0.000781 µM
[2] = HPLM + 10% dialyzed FBS, 0.00234 µM
[3] = HPLM + 10% dialyzed FBS, 0.00702 µM
[4] = HPLM + 10% dialyzed FBS, 0.0211 µM
[5] = HPLM + 10% dialyzed FBS, 0.0632 µM
[6] = HPLM + 10% dialyzed FBS, 0.19 µM
[7] = HPLM + 10% dialyzed FBS, 0.569 µM
[8] = HPLM + 10% dialyzed FBS, 1.71 µM
[9] = HPLM + 10% dialyzed FBS, 5.12 µM
[10] = HPLM + 10% dialyzed FBS, 15.4 µM
[11] = HPLM + 10% dialyzed FBS, 46.1 µM

| Structure (SMILES) | cell viability [1] [%] | cell viability [2] [%] | cell viability [3] [%] | cell viability [4] [%] | cell viability [5] [%] | cell viability [6] [%] | cell viability [7] [%] | cell viability [8] [%] | cell viability [9] [%] | cell viability [10] [%] | cell viability [11] [%] | cell viability (RPMI 5 mM glucose + 10% dialyzed FBS, 0.000781 µM) [%] | cell viability (RPMI 5 mM glucose + 10% dialyzed FBS, 0.00234 µM) [%] | cell viability (RPMI 5 mM glucose + 10% dialyzed FBS, 0.00702 µM) [%] | cell viability (RPMI 5 mM glucose + 10% dialyzed FBS, 0.0211 µM) [%] | cell viability (RPMI 5 mM glucose + 10% dialyzed FBS, 0.0632 µM) [%] | cell viability (RPMI 5 mM glucose + 10% dialyzed FBS, 0.19 µM) [%] | cell viability (RPMI 5 mM glucose + 10% dialyzed FBS, 0.569 µM) [%] | cell viability (RPMI 5 mM glucose + 10% dialyzed FBS, 1.71 µM) [%] | cell viability (RPMI 5 mM glucose + 10% dialyzed FBS, 5.12 µM) [%] | cell viability (RPMI 5 mM glucose + 10% dialyzed FBS, 15.4 µM) [%] | cell viability (RPMI 5 mM glucose + 10% dialyzed FBS, 46.1 µM) [%] |
| --- | --- | --- | --- | --- | --- | --- | --- | --- | --- | --- | --- | --- | --- | --- | --- | --- | --- | --- | --- | --- | --- | --- |
| C[S+](=O)([O-])c1ccc(C(=O)Nc2ccc(Cl)c(-c3ccccn3)c2)c(Cl)c1 | 113 | 113 | 123 | 132 | 131 | 135 | 136 | 125 | 131 | 126 | 127 | – | – | – | – | – | – | – | – | – | – | – |
| COc1cc2nc(N3CCN(C(=O)C4CCCO4)CC3)nc(N)c2cc1OC (centres undefined) | 112 | 123 | 123 | 127 | 130 | 130 | 131 | 124 | 127 | 139 | 136 | – | – | – | – | – | – | – | – | – | – | – |
| CCN(CC)CCCCNc1ncc2c(n1)N(C)C(=O)N(c1c(Cl)c(OC)cc(OC)c1Cl)C2 | 118 | 121 | 120 | 118 | 117 | 115 | 113 | 121 | 114 | 105 | 11.8 | 120 | 110 | 122 | 119 | 120 | 117 | 106 | 103 | 121 | 90.9 | 22.8 |
